# Patent EP2068152A1, “c-Kit as a novel target for the treatment of pain” (Max-Delbrück-Centrum für Molekulare Medizin (MDC), priority 2007, dated 2009)
# What was measured:
# [1] = test system: Aβ mechanoreceptors; details: animals treated as adults with imatinib
# [2] = test system: c-Kit; test: Paw withdrawal test (radiant heat); type: in vivo, mice
# Method: Paw withdrawal test. In the radiant paw-withdrawal test the mice were placed in a Plexiglas chamber (15 cm diameter, 22.5 cm in height). The stimulus was a high intensity beam directed at the plantar surface of the hindpaw; movement of the paw away from the beam results in the heat source being terminated, with the withdrawal latency indicated on a digital screen (Ugo Basile, Milan, Italy). Paw withdrawal latencies were determined alternately from both hindpaws (stimuli given every 30- 40 s). Criteria for inclusion of a data point were calm behavior of the mouse just prior to testing, and a clear paw withdrawal from the hot beam associated with paw flicking and grooming. Baseline values were taken once a day at the same time for a period of 3 days. c-Kit ligand (Stem Cell Factor, SCF, R&D Systems) was injected once intraperitoneally (1 mg/kg i.p.) into TRPV1 -l- and control C57B1/6 mice (adult females, 6- 8 weeks, 20-25 g body weight), and response latencies to radiant heating of the hind paw was measured at various times after injection as described.
# The inventors therefore used the mast cell degranulating agent 48/80 to deplete resident mast cells of neuroactive substances prior to the administration of SCF.
# [3] = test system: C-fiber nociceptors; test: In vitro skin nerve preparation: noxious heat response of CMH fibers from treated mice; type: in vivo
# Method: The conduction velocity cut-off between Aβ and Aδ fibers was determined to be 9 m/s in c-Kit mutants based on measurements of the Aβ and Aδ wave in compound action potential recordings as previously described (Koltzenburg et al., 1997).
smiles,measurement,setting,value
"Cc1ccc(NC(=O)c2ccc(CN3CCN(C)CC3)cc2)cc1Nc1nccc(-c2cccnc2)n1 [imatinib, 4-[(4-Methyl-1-piperazinyl)methyl]-N-[4-methyl-3-[[4-(3-pyridinyl)-2-pyrimidinyl]amino]-phenyl]benzamide]",proportion of RAM and SAM receptors,[1],no change in proportion of RAM and SAM receptors
same,foot withdrawal latency to noxious heat,"[2]; 5 days after daily imatinib treatment, 0.1 mg/g sub-cutaneously, n=6, vehicle treated mice 129 ±35%",160 ±39 % of starting values
same,thermal hyperalgesia after SCF in pre-treated mice,"[2]; two subcutaneous injections (0.1 mg/g) 18 hrs and 1 hr before SCF (1 µg/g, i.p.)",did not display any significant thermal hyperalgesia
same,C-fiber heat sensitivity,[3]; imatinib 0.1 mg/g sub-cutaneously for 6-7 days,reduction in C-fiber heat sensitivity that was almost identical to that found in c-Kit^-/- and c-Kit^+/- mice
same,"number of spikes per 1 second time window during the heat ramp (CMH fibers), curve versus control","[3]; imatinib treated adult mice, heat ramp 32°C to 60°C, Two way ANOVA F=7.67 p<0.01",significantly different from control
same,fibers with responses >60 spikes/stimulus (high responders),"[3]; imatinib treated mice, figure stated together with c-kit mutant mice, control C-fibers 47%",~16%
